Results taken from article PMC10314922, “Fluorescence lifetime FRET assay for live-cell high-throughput screening of the cardiac SERCA pump yields multiple classes of small-molecule allosteric modulators” (Scientific Reports, 2023).
“And” between values parts separate entries of the source, which are not always exact repeats. Identical values can stand only once. “Also recorded” adds a separate entry of the source.

How the values were obtained:
[1] = target: T1, human two-color SERCA2a (2CS) biosensor (Homo sapiens, UniProt P16615, INS508[…]); assay: FRET concentration response curves (FLT-FRET) with the 2CS biosensor in live HEK cells; assay type: cell-based
T1 construct: expressed in transfected cells
T1 sequence (P16615 other isoform, or with tags, fused parts or gaps with the stated changes): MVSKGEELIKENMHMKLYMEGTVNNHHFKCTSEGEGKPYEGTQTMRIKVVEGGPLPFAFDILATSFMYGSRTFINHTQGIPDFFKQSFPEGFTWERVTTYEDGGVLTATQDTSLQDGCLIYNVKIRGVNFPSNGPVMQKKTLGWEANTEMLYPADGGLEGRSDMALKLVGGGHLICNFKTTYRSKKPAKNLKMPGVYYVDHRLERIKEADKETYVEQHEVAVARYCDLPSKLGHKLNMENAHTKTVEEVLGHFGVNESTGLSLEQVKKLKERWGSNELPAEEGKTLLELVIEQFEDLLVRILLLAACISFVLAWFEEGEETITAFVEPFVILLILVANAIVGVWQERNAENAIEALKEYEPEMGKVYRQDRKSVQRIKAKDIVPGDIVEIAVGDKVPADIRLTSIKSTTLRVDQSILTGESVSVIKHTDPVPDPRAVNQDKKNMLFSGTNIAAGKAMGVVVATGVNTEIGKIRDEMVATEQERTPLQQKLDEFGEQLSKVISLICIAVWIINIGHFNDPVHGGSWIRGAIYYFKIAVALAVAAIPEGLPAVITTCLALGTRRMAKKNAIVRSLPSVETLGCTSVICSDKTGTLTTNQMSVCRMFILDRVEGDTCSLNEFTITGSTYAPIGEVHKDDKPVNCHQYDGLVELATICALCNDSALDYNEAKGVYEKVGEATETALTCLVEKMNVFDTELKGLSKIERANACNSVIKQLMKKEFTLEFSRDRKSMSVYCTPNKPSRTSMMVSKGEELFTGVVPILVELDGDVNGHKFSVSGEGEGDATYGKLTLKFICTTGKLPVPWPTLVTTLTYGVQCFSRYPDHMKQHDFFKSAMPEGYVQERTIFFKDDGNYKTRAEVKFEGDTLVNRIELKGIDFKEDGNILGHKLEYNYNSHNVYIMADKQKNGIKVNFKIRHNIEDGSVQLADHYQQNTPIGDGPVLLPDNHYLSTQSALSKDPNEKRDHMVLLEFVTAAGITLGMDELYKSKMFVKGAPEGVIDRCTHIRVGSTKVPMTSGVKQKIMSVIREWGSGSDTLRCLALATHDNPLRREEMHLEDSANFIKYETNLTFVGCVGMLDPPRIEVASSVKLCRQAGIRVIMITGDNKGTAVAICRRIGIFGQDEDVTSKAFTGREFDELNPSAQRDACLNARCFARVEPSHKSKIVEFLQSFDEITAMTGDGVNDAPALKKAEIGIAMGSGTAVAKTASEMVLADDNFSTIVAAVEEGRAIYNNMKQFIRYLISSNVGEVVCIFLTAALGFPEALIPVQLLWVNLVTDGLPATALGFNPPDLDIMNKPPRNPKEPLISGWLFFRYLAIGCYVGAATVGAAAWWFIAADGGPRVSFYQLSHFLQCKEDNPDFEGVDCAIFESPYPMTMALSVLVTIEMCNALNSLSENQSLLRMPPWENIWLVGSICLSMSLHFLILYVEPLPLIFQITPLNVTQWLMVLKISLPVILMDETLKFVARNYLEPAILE
Text: A two-color intramolecular human SERCA2a (2CS) biosensor, based on human cardiac SERCA2a fused to green fluorescent protein (eGFP) and red fluorescent protein (tagRFP) was developed to detect structural changes that are related to the functional changes of SERCA[20],[22],[25]. Briefly, tagRFP was genetically fused to the N-terminus of SERCA (A-domain) and eGFP was inserted as an intrasequence tag before residue 509 in the nucleotide-binding domain (N-domain)[60],[61]. Donor-only and acceptor-only (1CS) biosensors were created in a similar manner as the 2CS biosensor but with the construct containing either only eGFP or only tag-RFP, respectively. […] A null-biosensor construct consisting of eGFP and tagRFP connected by a 32-residue unstructured flexible linker peptide (G32R) was created as described previously[23],[25]. All constructs were cloned into expression vectors containing the genes for antibiotic resistance to G418, puromycin, or blasticidin.
Stable cell lines were generated using either human embryonic kidney (HEK) HEK293 (ATCC, Manassas, VA) or HEK293-6E (National Research Council, Canada) cells. Briefly, cells were transiently transfected with 2CS, 1CS, or G32R null-biosensor plasmids using Lipofecatime 3000 or 293fectin (Thermo Fisher Scientific). Flow cytometry was used to select and enrich for the population of cells expressing respective biosensors. Stable HEK293 cell lines were maintained in phenol red-free DMEM media (Gibco, Waltham, MA) supplemented with 2 mM GlutaMAX (Gibco, Waltham, MA), 10% fetal bovine serum (FBS) (Atlanta Biologicals, Lawrenceville, GA), 1 IU/mL penicillin/streptomycin (Gibco, Waltham, MA), and 250 μg/mL G418 (Fisher Scientific). Stable HEK293-6E cell lines were maintained in F17 media (Sigma Aldrich) supplemented with Kolliphor p188 (Sigma Aldrich, St. Louis, MO), […] GlutaMAX, and either 1 μg/mL puromycin (Invitrogen, Carlsbad, CA) or 2 μg/mL blasticidin (Goldbio) as a selection antibiotic. All cell lines were grown at 37 °C with 5% CO2.
FRET CRC assay plates (0.78–100 μM compound range) with at least ten different compound concentrations were made by adding the appropriate volume of compound or DMSO into black 384 well plates (Greiner Bio-One) using a Mosquito HV (SPTLabTech, United Kingdom). Subsequent Ca^2+-ATPase activity and Ca^2+-transport CRC assay plates (0–50 μM compound range) with repurchased compounds were made in a similar manner using with the Echo 550 (Beckman Coulter) using either 384 well transparent plates (Greiner Bio-One) or black-walled plates with transparent bottoms (Greiner Bio-One), respectively.
On each day of screening, cells were harvested, washed three times with PBS, and centrifuged at 300 g for 5 min. Cells were filtered using a 70 µm cell strainer and diluted to 1–2 × 10^6 cells/mL. Cell concentration and viability were assessed using the Cell countess (Invitrogen) and trypan blue assay. During assays, cells were constantly and gently stirred using a magnetic stir bar at room temperature, keeping the cells in suspension and evenly distributed to avoid clumping. HEK 293-cells expressing 2CS were dispensed at 5 μL or […] per well into assay plates (dispensed into 40 assay plates, each containing 1536 wells) pre-plated with compounds (from a DIVERset 50,000 compound library) using a Multdrop Combi liquid dispenser (Thermo Fisher Scientific, Pittsburg, PA) and sealed until needed. Because the kinetics of membrane permeability, diffusion, and/or binding of the compound to live cells may be compound-dependent, we tested two incubation times, 20 min and 120 min, for the FRET CRC. […] Plates containing eight-point concentration curves of three tool compounds (known SERCA effectors thapsigargin, BHQ, and CPA)[22] were used as positive controls for biosensor function and performance prior to running the full-scale FRET-HTS assay. […]

[2] = target: T2, SERCA2a (Sus scrofa, UniProt P11607); assay: Oxalate-supported Fluo-4 Ca2+-uptake (Ca2+-transport) assay in pig cardiac SR (pCSR) vesicles; assay type: biochemical; details: for Ca2+-Uptake ΔFMAX / Ca2+-Uptake ΔFMID: maximal compound effect vs DMSO control, pCSR; for Effect on Ca2+-uptake (category, Fig. 4A): activators, categories activate / uncouple / inhibit; for CR (coupling ratio) VU/VA: maximum Ca2+-uptake rate / Ca2+-ATPase rate at [Ca2+]MAX, DMSO control = 0.66; for Increase in Ca2+-uptake: over [Ca2+]MAX and [Ca2+]MID; for Ca2+-Uptake C10: concentration yielding 10% effect; for Decrease (inhibition) of Ca2+-uptake at [Ca2+]MAX: size of decrease
T2 construct: Cardiac SR vesicles were isolated from fresh porcine left ventricular tissue using differential centrifugation; from tissue; host or cells: porcine left ventricular tissue (cardiac SR vesicles)
T2 sequence (P11607 1-997 isoform P11607-2): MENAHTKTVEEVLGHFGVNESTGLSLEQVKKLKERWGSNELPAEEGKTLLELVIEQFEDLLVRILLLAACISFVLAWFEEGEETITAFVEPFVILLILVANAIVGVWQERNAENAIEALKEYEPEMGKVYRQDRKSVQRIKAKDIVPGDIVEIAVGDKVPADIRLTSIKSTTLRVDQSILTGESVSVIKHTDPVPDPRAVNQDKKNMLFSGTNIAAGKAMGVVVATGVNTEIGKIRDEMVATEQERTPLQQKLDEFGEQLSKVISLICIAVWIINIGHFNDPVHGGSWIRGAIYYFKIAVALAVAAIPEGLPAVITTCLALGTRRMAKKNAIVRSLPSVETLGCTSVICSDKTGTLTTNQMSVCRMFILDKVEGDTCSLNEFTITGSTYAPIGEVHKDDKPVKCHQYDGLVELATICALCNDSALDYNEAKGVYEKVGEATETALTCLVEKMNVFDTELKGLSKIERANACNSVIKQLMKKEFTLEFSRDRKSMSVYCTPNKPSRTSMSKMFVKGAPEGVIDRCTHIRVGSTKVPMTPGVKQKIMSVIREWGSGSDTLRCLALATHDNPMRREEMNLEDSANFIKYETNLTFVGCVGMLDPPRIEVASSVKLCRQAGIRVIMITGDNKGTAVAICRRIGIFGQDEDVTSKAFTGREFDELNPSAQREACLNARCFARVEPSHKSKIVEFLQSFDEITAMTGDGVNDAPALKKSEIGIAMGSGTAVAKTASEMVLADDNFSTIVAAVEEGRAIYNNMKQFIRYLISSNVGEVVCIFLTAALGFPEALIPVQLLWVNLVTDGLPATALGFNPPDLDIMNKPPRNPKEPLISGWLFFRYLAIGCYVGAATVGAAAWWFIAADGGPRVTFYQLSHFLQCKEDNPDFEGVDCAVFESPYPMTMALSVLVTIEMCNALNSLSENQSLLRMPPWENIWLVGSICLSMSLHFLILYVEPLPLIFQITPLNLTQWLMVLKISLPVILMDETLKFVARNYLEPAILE
Experimental: (§1) Cardiac SR vesicles were isolated from fresh porcine left ventricular tissue using differential centrifugation of the homogenized tissue as previously described. The SR vesicles were flash-frozen and stored at − 80 °C until needed. The SERCA concentration in the ER preparations purified from HEK cell homogenate is at least 10 times less than in purified porcine cardiac SR[20], but there was sufficient expression of the fluorescent SERCA2a biosensor in HEK cells to detect FRET with high precision by FLT[22],[23],[26].
Ca^2+-transport assays were performed with similar porcine SR samples as in the Ca^2+-ATPase assays described above. The compound effect on the Ca^2+-transport activity of SERCA2a was determined using an oxalate-supported assay in which the change in fluorescence in a Ca^2+-sensitive dye, Fluor-4, was determined as previously described. A buffered solution containing 50 mM MOPS (pH 7.0), 100 mM KCl, 30 mg/mL sucrose, 1 mM EGTA, 10 mM potassium oxalate, 2 µM Fluo-4, 30 µg/mL porcine cardiac SR vesicles, CaCl2 calculated to reach the free [Ca^2+] (pCa 8.0, 6.2, and 5.4), and compound (0.048 to 50 μM) was dispensed into 384-well black walled, transparent bottomed plates (Greiner Bio-One) containing the tested small molecule and incubated at 22℃ for 20 min while covered and protected from light. To start the reaction, MgATP was added to a final concentration of 5 mM, and the decrease in 485-nm excited fluorescence of Fluo-4 was monitored at 520 nm for 15 min using a FLIPR Tetra (Molecular Devices, San Jose, CA).
(§2) SERCA2a activity, F (rate of ATP hydrolysis or Ca^2+ uptake), was measured at varying pCa and varying compound concentration. F measured at [Ca^2+]MAX (saturating, pCa 5.4) or [Ca^2+]MID (subsaturating, midpoint, pCa 6.2) was corrected by subtracting the basal rate at pCa 8.0) and the % effect due to compound was reported. Concentration response curves (CRC) were fitted using the Hill function to determine VMAX (the activity at saturating [compound]), and EC50, the compound concentration at 50% effect.

[3] = target: T2, SERCA2a; assay: NADH-linked Ca2+-ATPase activity assay in pig cardiac SR (pCSR) vesicles; assay type: biochemical; details: for Ca2+-ATPase C10: concentration yielding 10% effect; for Ca2+-ATPase ΔFMAX / Ca2+-ATPase ΔFMID: maximal compound effect vs DMSO control, pCSR; for Effect on Ca2+-ATPase activity (category, Fig. 4A): activators, categories activate / uncouple / inhibit
Experimental: as §1
Functional assays were performed using porcine cardiac SR (pCSR) vesicles. An enzyme-coupled, NADH-linked ATPase assay was used to measure SERCA ATPase activity in 384-well microplates. Each well contained 50 mM MOPS (pH 7.0), 100 mM KCl, 1 mM EGTA, 0.2 mM NADH, 1 mM phosphoenol pyruvate, 10 IU/mL of pyruvate kinase, 10 IU/mL of lactate dehydrogenase, 7 µM of the calcium ionophore A23187 (Sigma), and CaCl2 was added to set free [Ca^2+] to three different concentrations. Ca^2+-ATPase activity was measured at three [Ca^2+]: [Ca^2+]MAX (saturating, pCa 5.4), [Ca^2+]MID (subsaturating, midpoint, pCa 6.2), and [Ca^2+]BAS (basal non-activating, pCa 8.0). 10 μg/mL of SR vesicle, calcium, compound (0.048 to 50 μM), and assay mix were incubated for 20 min at room temperature before measurement of functional assays with each of the 18 hit compounds, because a shorter incubation time than the FRET live-cell assays achieved optimal responses. The assay was started upon the addition of MgATP, at a final concentration of 5 mM (total volume to 80 μL), and absorbance was read at 340 nm in a SpectraMax Plus^384 microplate spectrophotometer (Molecular Devices, Sunnyvale, CA).
as §2

| Structure (SMILES) | EC50 [1] | Ca2+-Uptake ΔFMAX ([2]; [Ca2+]MAX (pCa5.4)) | Ca2+-Uptake ΔFMID ([2]; [Ca2+]MID (pCa6.2)) | Effect on Ca2+-uptake (category, Fig. 4A) [2] | CR (coupling ratio) VU/VA [2] | Increase in Ca2+-uptake [2] | Ca2+-ATPase C10 ([3]; [Ca2+]MAX (pCa5.4)) | Ca2+-ATPase ΔFMAX ([3]; [Ca2+]MAX (pCa5.4)) | Ca2+-ATPase ΔFMID ([3]; [Ca2+]MID (pCa6.2)) | Effect on Ca2+-ATPase activity (category, Fig. 4A) [3] | Ca2+-Uptake C10 ([2]; [Ca2+]MAX (pCa5.4)) | Decrease (inhibition) of Ca2+-uptake at [Ca2+]MAX [2] | Increase in Ca2+-ATPase activity [3] | EC50 ([3]; [Ca2+]MAX (pCa5.4)) | Ca2+-ATPase C10 ([3]; [Ca2+]MID (pCa6.2)) | Ca2+-Uptake C10 ([2]; [Ca2+]MID (pCa6.2)) | Inhibition of Ca2+-uptake (class) ([2]; strong / moderate / mild) | EC50 ([2]; [Ca2+]MAX (pCa5.4)) | EC50 ([2]; [Ca2+]MID (pCa6.2)) | EC50 ([3]; [Ca2+]MID (pCa6.2)) |
| --- | --- | --- | --- | --- | --- | --- | --- | --- | --- | --- | --- | --- | --- | --- | --- | --- | --- | --- | --- | --- |
| O=C(c1cc(COc2ccc3ncccc3c2)on1)N1CCC(c2ccncc2)CC1 [Compound 2, 6-[(3-{[4-(4-pyridinyl)-1-piperidinyl]carbonyl}-5-isoxazolyl)methoxy]quinoline] | 1.4 ± 0.5 µM | 4 ± 6.1% | 4 ± 2.1% | uncouple | 0.53 | 0.5–10% | 48 µM | 16% and 16 ± 3% | 7% and 7 ± 3% | activate |  |  |  |  |  |  |  |  |  |  |
| O=C(c1cc(COc2ccc3c(c2)CCCC3)on1)N1CCC(c2ccncc2)CC1 [Compound 3, 4-[1-({5-[(5,6,7,8-tetrahydro-2-naphthalenyloxy)methyl]-3-isoxazolyl}carbonyl)-4-piperidinyl]pyridine] | 1.6 ± 0.2 µM |  | 6% and 6 ± 3.3% | inhibit | 0.39 |  | 11.0 µM | 21 ± 5.1% | 30 ± 11% | activate | 17.5 µM | 20% | 10–25% | 8.4 ± 3.1 µM | 14.8 µM |  |  |  |  |  |
| COc1ccc(Cc2noc(CN3CCN(c4nc5ccccc5s4)CC3)n2)cc1OC [Compound 5, 2-(4-{[3-(3,4-dimethoxybenzyl)-1,2,4-oxadiazol-5-yl]methyl}-1-piperazinyl)-1,3-benzothiazole] | 1.5 ± 0.1 µM |  | 20% and 20 ± 3.3% | inhibit | 0.47 |  | 22.7 µM | 25% and 25 ± 3.3% | 35% and 35 ± 8.2% | activate |  | 2% | 10–25% |  | 19.6 µM | 22.5 µM |  |  |  |  |
| CC1Cc2cc(CNC(=O)c3cc(C(C)C)nn3C)ccc2O1 (stereo not shown) [Compound 9, 3-isopropyl-1-methyl-N-[(2-methyl-2,3-dihydro-1-benzofuran-5-yl)methyl]-1H-pyrazole-5-carboxamide] | 0.6 ± 0.1 µM | 5 ± 2.2% | 3 ± 2.4% | uncouple | 0.51 | 3–5% and 0.5–10% | 30.7 µM | 21% and 21 ± 5% | 10% and 10 ± 6% | activate |  |  |  | 24 ± 9 µM |  |  |  |  |  |  |
| COc1ccc(Cn2cc(C(=O)N(C)Cc3ccnc4ccccc34)nn2)cc1 [Compound 10, 1-(4-methoxybenzyl)-N-methyl-N-(4-quinolinylmethyl)-1H-1,2,3-triazole-4-carboxamide] | 5.6 ± 0.6 µM |  |  |  | 0.35 |  | 7 µM |  |  |  | 4.1 µM |  |  |  | 3.2 µM | 7.9 µM | Mild → M; also recorded: mild-to-moderate |  |  |  |
| COC(=O)CSc1ncc(-c2ccc(F)cc2)c(C2CCCN(C(=O)c3cccc(F)c3)C2)n1 (stereo not shown) [Compound 11, methyl {[4-[1-(3-fluorobenzoyl)-3-piperidinyl]-5-(4-fluorophenyl)-2-pyrimidinyl]thio}acetate] | 14 ± 6.4 µM |  |  |  | 0.13 |  | 0.8 µM |  |  |  | 0.2 µM |  |  | 3.2 ± 0.4 µM | 1.2 µM | 0.5 µM |  | 1.8 ± 0.04 µM | 2.8 ± 0.1 µM | 3.6 ± 0.5 µM |
| OCC1(CCOc2ccccc2)CCCN(Cc2cc3c(cc2Cl)OCO3)C1 (stereo not shown) [Compound 13, [1-[(6-chloro-1,3-benzodioxol-5-yl)methyl]-3-(2-phenoxyethyl)-3-piperidinyl]methanol] | 9.9 ± 2.1 µM |  |  |  |  |  | 1 µM |  |  |  | 0.5 µM |  |  |  | 1.6 µM | 1.0 µM |  | 3.6 ± 0.1 µM | 6.4 ± 0.2 µM |  |
